Measured values published in ChEMBL document CHEMBL1201862, “PubChem BioAssay data set” (2004).
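Five concentrations, 48 hours, 96-well plates. Abbreviation: GI50, concentration required for 50% inhibition of growth.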 Calls of active or inactive are those of the source. Rule as the data show it: active = GI50 up to about 1.1 µM and inactive = higher.

Tests used:
Experiment in all cases: NCI-60 cell line screen, 48 h
HCT-15 = test system: HCT-15
MDA-MB-231 = test system: MDA-MB-231
MDA-MB-435 = test system: MDA-MB-435
U-251 = test system: U-251
UO-31 = test system: UO-31
ACHN = test system: ACHN
SF-295 = test system: SF-295
SK-MEL-2 = test system: SK-MEL-2
A549 = test system: A549
786-0 = test system: 786-0
Malme-3M = test system: Malme-3M
MDA-N = test system: MDA-N
HCC 2998 = test system: HCC 2998
LOX IMVI = test system: LOX IMVI
SW-620 = test system: SW-620
UACC-257 = test system: UACC-257
NCI-H226 = test system: NCI-H226
HT-29 = test system: HT-29
RPMI-8226 = test system: RPMI-8226
A498 = test system: A498

## Clc1ccc(COC(Cn2ccnc2)c2ccc(Cl)cc2Cl)c(Cl)c1 (stereo not drawn) [MICONAZOLE NITRATE]
HCT-15
  GI50: 10.2 µM
MDA-MB-231
  GI50: 11.9 µM (inactive)
MDA-MB-435
  GI50: 3.37 µM (inactive)
U-251
  GI50: 11 µM (inactive)
UO-31
  GI50: 2.94 µM (inactive)
ACHN
  GI50: 12.2 µM (inactive)
SF-295
  GI50: 10.8 µM (inactive)
SK-MEL-2
  GI50: 13.1 µM (inactive)
A549
  GI50: 10.9 µM (inactive)
786-0
  GI50: 10.9 µM (inactive)
Malme-3M
  GI50: 12.5 µM (inactive)
MDA-N
  GI50: 3.89 µM (inactive)
HCC 2998
  GI50: 12.8 µM (inactive)
LOX IMVI
  GI50: 9.18 µM (inactive)
SW-620
  GI50: 12.8 µM (inactive)
UACC-257
  GI50: 11 µM (inactive)

## CN(/N=C/C=N/N(C)C1=NCCN1)C1=NCCN1
HCT-15
  GI50: > 100 µM
MDA-MB-231
  GI50: > 100 µM (inactive)
MDA-MB-435
  GI50: > 100 µM (inactive)
U-251
  GI50: > 100 µM (inactive)
UO-31
  GI50: > 100 µM (inactive)
ACHN
  GI50: > 100 µM (inactive)
SF-295
  GI50: > 100 µM (inactive)
A549
  GI50: > 100 µM (inactive)
786-0
  GI50: > 100 µM (inactive)
Malme-3M
  GI50: > 100 µM (inactive)
MDA-N
  GI50: > 100 µM (inactive)
NCI-H226
  GI50: > 100 µM (inactive)
HCC 2998
  GI50: > 100 µM (inactive)
HT-29
  GI50: > 100 µM (inactive)
LOX IMVI
  GI50: > 100 µM (inactive)
SW-620
  GI50: > 100 µM (inactive)
UACC-257
  GI50: > 100 µM (inactive)

## COC(=O)C1=C(O)C(C(=O)OC)[C@]2(O)[C@H](C(=O)OC)[C@H]1C[C@@H](c1ccc([N+](=O)[O-])cc1)[C@H]2C(=O)OC (stereo partly drawn)
HCT-15
  GI50: 12.7 µM
MDA-MB-231
  GI50: 24.6 µM (inactive)
MDA-MB-435
  GI50: 11 µM (inactive)
U-251
  GI50: 11.5 µM (inactive)
ACHN
  GI50: 18.1 µM (inactive)
SF-295
  GI50: 28.5 µM (inactive)
SK-MEL-2
  GI50: 18.4 µM (inactive)
A549
  GI50: 21.3 µM (inactive)
786-0
  GI50: 14.9 µM (inactive)
Malme-3M
  GI50: 3.46 µM (inactive)
MDA-N
  GI50: 7.91 µM (inactive)
NCI-H226
  GI50: 24.9 µM (inactive)
HT-29
  GI50: 22.6 µM (inactive)
LOX IMVI
  GI50: 13 µM (inactive)
SW-620
  GI50: 16.6 µM (inactive)
UACC-257
  GI50: 34.1 µM (inactive)

## COc1cc(C(=O)O[C@H]2CCC3CCC2N3C)cc(OC)c1OC (stereo partly drawn)
HCT-15
  GI50: > 100 µM
MDA-MB-231
  GI50: > 100 µM (inactive)
MDA-MB-435
  GI50: > 100 µM (inactive)
U-251
  GI50: > 100 µM (inactive)
UO-31
  GI50: 43.2 µM (inactive)
ACHN
  GI50: > 100 µM (inactive)
SF-295
  GI50: > 100 µM (inactive)
RPMI-8226
  GI50: > 100 µM (inactive)
A549
  GI50: > 100 µM (inactive)
A498
  GI50: 36.3 µM (inactive)
786-0
  GI50: > 100 µM (inactive)
Malme-3M
  GI50: > 100 µM (inactive)
NCI-H226
  GI50: > 100 µM (inactive)
HCC 2998
  GI50: > 100 µM (inactive)
HT-29
  GI50: > 100 µM (inactive)
LOX IMVI
  GI50: > 100 µM (inactive)
SW-620
  GI50: > 100 µM (inactive)
UACC-257
  GI50: > 100 µM (inactive)

## Oc1ccc(Oc2cc3c(cc2Oc2ccc(O)cc2)-c2nc-3nc3[nH]c(nc4nc(nc5[nH]c(n2)c2cc(Oc6ccc(O)cc6)c(Oc6ccc(O)cc6)cc52)-c2cc(Oc5ccc(O)cc5)c(Oc5ccc(O)cc5)cc2-4)c2cc(Oc4ccc(O)cc4)c(Oc4ccc(O)cc4)cc32)cc1
HCT-15
  GI50: > 100 µM
MDA-MB-231
  GI50: 23.5 µM (inactive)
MDA-MB-435
  GI50: > 100 µM (inactive)
U-251
  GI50: > 100 µM (inactive)
UO-31
  GI50: > 100 µM (inactive)
ACHN
  GI50: > 100 µM (inactive)
SF-295
  GI50: 37.8 µM (inactive)
A549
  GI50: > 100 µM (inactive)
786-0
  GI50: > 100 µM (inactive)
Malme-3M
  GI50: 19.1 µM (inactive)
MDA-N
  GI50: > 100 µM (inactive)
NCI-H226
  GI50: > 100 µM (inactive)
HCC 2998
  GI50: > 100 µM (inactive)
HT-29
  GI50: > 100 µM (inactive)
LOX IMVI
  GI50: 39.9 µM (inactive)
SW-620
  GI50: > 100 µM (inactive)
UACC-257
  GI50: > 100 µM (inactive)

## COC(=O)c1c(O)ccc2c1c1c(n2Cc2ccc(OC)cc2)C(=O)c2ccccc2C1=O
HCT-15
  GI50: 3.74 µM
MDA-MB-435
  GI50: 6.46 µM (inactive)
U-251
  GI50: 8.67 µM (inactive)
UO-31
  GI50: 3.92 µM (inactive)
ACHN
  GI50: 2.62 µM (inactive)
SF-295
  GI50: 14.2 µM (inactive)
SK-MEL-2
  GI50: 11.3 µM (inactive)
RPMI-8226
  GI50: 0.168 µM (active)
A549
  GI50: 4.91 µM (inactive)
A498
  GI50: 20.5 µM (inactive)
786-0
  GI50: 12 µM (inactive)
Malme-3M
  GI50: 39.9 µM (inactive)
MDA-N
  GI50: 12.5 µM (inactive)
NCI-H226
  GI50: 10.4 µM (inactive)
HCC 2998
  GI50: 2.97 µM (inactive)
HT-29
  GI50: 3.09 µM (inactive)
LOX IMVI
  GI50: 5.85 µM (inactive)
SW-620
  GI50: 18.6 µM (inactive)
UACC-257
  GI50: 26.3 µM (inactive)
